Data published in ChEMBL document CHEMBL3507680, “University of Dundee, Gates Library screen for HepG2 cell viability”.

Assay: Human HepG2 cell viability assay in 384 well format
Assay type: toxicity, cell-based
Parameters: dose 125 nL, time 70.5 hour; concentration not given beside the values
Settings: HepG2 cells, read-out: Inhibition
With `Cc1nccn1-c1ccc(=O)n(CCNC(=O)c2ccncc2)n1` the cytotoxicity at 70.5 h was -7.2%. For `O=c1ccc(-n2ccnc2)nn1CCNS(=O)(=O)c1ccc(Br)cc1`, the cytotoxicity at 70.5 h was 15.1%. For `O=c1ccc(-n2ccnc2)nn1CCNS(=O)(=O)c1ccc(F)c(Cl)c1`, the cytotoxicity at 70.5 h was -1.07%. `Cn1nnn(-c2ccc(NS(=O)(=O)c3ccc(Br)cc3)cc2)c1=O` gave a cytotoxicity at 70.5 h of -2.26%. `O=C(c1nnn(-c2ccc(F)cc2)n1)N(CCO)Cc1ccccc1` showed a cytotoxicity at 70.5 h of -1.48%. For `CC1CCCN(C(=O)c2nnn(-c3ccc(C(F)(F)F)cc3)n2)C1` (stereo not drawn), the cytotoxicity at 70.5 h was 1.4%. Work on `O=C(c1nnn(-c2ccc(C(F)(F)F)cc2)n1)N1CCC(O)CC1` yielded a cytotoxicity at 70.5 h of -2.52%. `O=C1CN(C(=O)c2nnn(-c3ccc(C(F)(F)F)cc3)n2)CCN1` showed a cytotoxicity at 70.5 h of -14.4%. Work on `COCCNC(=O)NC1(c2nc(C)no2)CCCCC1` yielded a cytotoxicity at 70.5 h of -0.559%. Work on `COc1cccc(CNC(=O)NC2(c3nc(C)no3)CCCCC2)c1` yielded a cytotoxicity at 70.5 h of 13.3%. With `O=C(NC1(c2nc(C3CC3)no2)CCCCC1)c1cccnc1O` the cytotoxicity at 70.5 h was 3.05%. Work on `COc1nn(C)cc1C(=O)N1CCC(c2nnc(-c3ccsc3)o2)CC1` yielded a cytotoxicity at 70.5 h of -6.31%. `Cc1nnc(C2CCN(C(=O)c3ccc4[nH]ccc4c3)CC2)s1` showed a cytotoxicity at 70.5 h of -5.35%. With `CCCC(=O)N1CCC(c2nn(C)c(=O)n2-c2ccccc2)CC1` the cytotoxicity at 70.5 h was -10.4%. For `CCSc1ccccc1C(=O)NCCn1nc(C(F)(F)F)n(C)c1=O`, the cytotoxicity at 70.5 h was -4.82%. Compound `Cn1c(C(F)(F)F)nn(CCNC(=O)c2ccccn2)c1=O` has a cytotoxicity at 70.5 h of -7.74%. Compound `COCCNC(=O)NCCn1nc(C(F)(F)F)n(C)c1=O` has a cytotoxicity at 70.5 h of -4.7%. `O=C(CN1CCC(c2nnc(C(F)(F)F)o2)CC1)Nc1cccc(Cl)c1` showed a cytotoxicity at 70.5 h of 19.3%. For `CNC(=O)c1nnn(-c2ccccc2F)c1-c1ccccn1`, the cytotoxicity at 70.5 h was 0.41%. Compound `CN1CCN(c2cc(NC(=O)c3cnccn3)ncn2)CC1` has a cytotoxicity at 70.5 h of 0.507%. Work on `O=C(Cc1ccccc1Cl)Nc1cc(N2CCCC2)ncn1` yielded a cytotoxicity at 70.5 h of -0.171%. `CN(C)c1cc(C(=O)N2CCCC2)ccn1` gave a cytotoxicity at 70.5 h of -10%. For `Cc1nccn1C1CCCN(C(=O)CCOCC(F)(F)F)C1` (stereo not drawn), the cytotoxicity at 70.5 h was 17.2%. In the case of `Cc1cc(CN2CCC(N(C)Cc3noc(C4CC4)n3)C2)on1` (stereo not drawn), the cytotoxicity at 70.5 h is reported as 19.5%. In the case of `Cn1cnc2c1CCN(Cc1cccc(C(=O)N3CCCCC3)c1)C2`, the cytotoxicity at 70.5 h is reported as -7.19%. For `COc1cc(C)nc(N2CCN(C(=O)COCC3CC3)CC2)n1`, the cytotoxicity at 70.5 h was -3.61%. Compound `O=C1C(NCc2nnc3n2CCCC3)CCN1c1ccccc1F` (stereo not drawn) has a cytotoxicity at 70.5 h of -20.6%. `Cc1ccc(-c2cc(C(=O)NCCN3CCCS3(=O)=O)[nH]n2)cc1` gave a cytotoxicity at 70.5 h of 11.7%. Compound `COc1ccnc(N2CCN(C(=O)COCC(F)(F)F)CC2)n1` has a cytotoxicity at 70.5 h of 13%. `CC(O)CN1CCC(CNCc2ccccc2Cl)CC1` (stereo not drawn) showed a cytotoxicity at 70.5 h of -7.56%. `CC(C)CNC(=O)c1cccc(CN2CCc3c(ncn3C)C2)c1` showed a cytotoxicity at 70.5 h of -13.6%. With `CCn1ccnc1CN1CCN(CC(O)c2ccc(OC)cc2)CC1` (stereo not drawn) the cytotoxicity at 70.5 h was 12.3%. With `Cn1nc2c(cc1=O)CN(Cc1nc(-c3ccccn3)no1)CC2` the cytotoxicity at 70.5 h was -9%. `Cc1ccc(N2CCCC(NCc3nnc4n3CCCC4)C2=O)cc1` (stereo not drawn) gave a cytotoxicity at 70.5 h of -10.2%. `CCn1nc2c(cc1=O)CN(Cc1nc(-c3cccnc3)no1)CC2` showed a cytotoxicity at 70.5 h of -14.4%. For `O=C(NCc1nn(-c2ccccc2)c2c1CCC2)NC1CCOCC1`, the cytotoxicity at 70.5 h was -0.276%. With `CNC(=O)NCc1nn(-c2ccccc2)c2c1CCC2` the cytotoxicity at 70.5 h was -4.98%. With `CN(Cc1noc(C2CC2)n1)C1CCN(Cc2ncc[nH]2)C1` (stereo not drawn) the cytotoxicity at 70.5 h was 12.2%. Work on `CCc1cc(CNC(=O)N2CCC(Cc3cnn(C)c3)C2)on1` (stereo not drawn) yielded a cytotoxicity at 70.5 h of -4.1%. With `Cc1occc1CNC(=O)N1CCC(Cc2cnn(C)c2)C1` (stereo not drawn) the cytotoxicity at 70.5 h was -2.55%. For `Cn1cc(CC2CCN(C(=O)NCc3cccc(C#N)c3)C2)cn1` (stereo not drawn), the cytotoxicity at 70.5 h was -5%. For `COc1ccccc1CC(=O)N1CCCC(CNS(C)(=O)=O)C1` (stereo not drawn), the cytotoxicity at 70.5 h was -9.26%. Work on `CS(=O)(=O)NCC1CCCN(C(=O)CCCc2ccccc2)C1` (stereo not drawn) yielded a cytotoxicity at 70.5 h of -8.93%. For `Cc1nccn1C1CCCN(C(=O)COC2CCCC2)C1` (stereo not drawn), the cytotoxicity at 70.5 h was -4.55%. Work on `Cc1nccn1C1CCCN(C(=O)COCC2CC2)C1` (stereo not drawn) yielded a cytotoxicity at 70.5 h of -6.29%. For `Cc1cnn(CC2CCCN2Cc2cc(C)no2)c1` (stereo not drawn), the cytotoxicity at 70.5 h was -14%. `CCc1ocnc1C(=O)N1CCCC1c1noc(C2CC2)n1` (stereo not drawn) gave a cytotoxicity at 70.5 h of -9.72%. With `CN(Cc1noc(C2CC2)n1)C1CCN(Cc2ccc(F)c(F)c2)C1` (stereo not drawn) the cytotoxicity at 70.5 h was -8.17%. Compound `O=C(COCC(F)(F)F)N1CCCC(n2cccn2)C1` (stereo not drawn) has a cytotoxicity at 70.5 h of -8.85%. `CNc1cc(N2CCCC2CNCc2csc(C(C)C)n2)ncn1` (stereo not drawn) showed a cytotoxicity at 70.5 h of 28.6%. `CCn1ccnc1CN1CCCN(C(=O)c2cnn(C)c2)CC1` showed a cytotoxicity at 70.5 h of -7.1%. In the case of `CC(C(=O)N1CCCN(Cc2cscn2)CC1)N1CCOCC1` (stereo not drawn), the cytotoxicity at 70.5 h is reported as -8.05%. Work on `CN1CCN(c2cc(CNC(=O)c3cnccn3)ccn2)CC1` yielded a cytotoxicity at 70.5 h of -3.35%. For `Cc1cc(C(=O)NCc2ccnc(N3CCOCC3)c2)c(C)s1`, the cytotoxicity at 70.5 h was -13.9%. For `CN1CCN(c2cc(CNC(=O)c3ccsc3)ccn2)CC1`, the cytotoxicity at 70.5 h was 1%. `CC(Cc1ccco1)NC(=O)Nc1ccc(N2CCCC2)nc1` (stereo not drawn) showed a cytotoxicity at 70.5 h of -7.87%. `NC(=O)Cn1cc(NC(=O)N2CCC(c3ccccc3)CC2)cn1` showed a cytotoxicity at 70.5 h of -5.24%. Compound `CC(CO)NC(=O)Nc1ccc(S(C)(=O)=O)nc1` (stereo not drawn) has a cytotoxicity at 70.5 h of -2.27%. Work on `Cc1noc(C2CCCN(C(=O)c3ccc(N(C)C)nc3)C2)n1` (stereo not drawn) yielded a cytotoxicity at 70.5 h of -8.13%. For `Cc1nc(CN2CCN(C(C)c3nc(C4CC4)no3)CC2)oc1C` (stereo not drawn), the cytotoxicity at 70.5 h was -3.6%. For `Cc1noc(C2CCN(C(=O)Nc3ccc(N(C)C)nc3)CC2)n1`, the cytotoxicity at 70.5 h was 1.32%. `CCn1ccnc1CN1CCCN(C(=O)c2csc(C)n2)CC1` showed a cytotoxicity at 70.5 h of -5.02%. With `Cc1ncc(Cl)c(C(=O)N2CCCC(n3nc(C)nc3C)C2)n1` (stereo not drawn) the cytotoxicity at 70.5 h was -6.14%. Compound `CC(C)(C)c1n[nH]c(C2CN(C(=O)CCc3ccco3)CCO2)n1` (stereo not drawn) has a cytotoxicity at 70.5 h of 1.28%. `CCn1ccnc1CN1CCCN(C(=O)c2ccsc2)CC1` gave a cytotoxicity at 70.5 h of -2.37%. `O=C(c1ccc(N2CCOCC2)cc1)N1CCCC(n2ccnc2)C1` (stereo not drawn) showed a cytotoxicity at 70.5 h of 20.8%. Work on `Cc1nc(C)n(CC2CCCN(CC(=O)Nc3ccncc3)C2)n1` (stereo not drawn) yielded a cytotoxicity at 70.5 h of -5.01%. For `Cc1nc(C)n(CC2CN(Cc3cscn3)CCO2)n1` (stereo not drawn), the cytotoxicity at 70.5 h was -6.91%. `O=C(c1cccc2ncccc12)N1CCCC(n2ccnc2)C1` (stereo not drawn) showed a cytotoxicity at 70.5 h of -2.04%. In the case of `CC(C)Cc1noc(CN2CCN(S(C)(=O)=O)CC2)n1`, the cytotoxicity at 70.5 h is reported as -7.6%. Work on `O=C(NCc1ccoc1)Nc1cc(C(F)(F)F)c[nH]c1=O` yielded a cytotoxicity at 70.5 h of 1.11%. `COCc1cccc(CNCc2c(C(C)C)nn(C)c2N(C)C)c1` showed a cytotoxicity at 70.5 h of -7.7%. `Cc1cc(C)c(CNC(=O)CCC2CCCO2)c(=O)[nH]1` (stereo not drawn) gave a cytotoxicity at 70.5 h of -6.31%. For `Cc1cc(C)n(CC2CN(Cc3cc(C)on3)CCO2)n1` (stereo not drawn), the cytotoxicity at 70.5 h was -3.83%. For `Cn1cc(CCNCc2cc(Br)c3c(c2)OCO3)cn1`, the cytotoxicity at 70.5 h was 23.7%. In the case of `Cc1nnc2n1CCN(C(=O)c1cc(Br)c(Cl)[nH]1)C2`, the cytotoxicity at 70.5 h is reported as -1.01%. Work on `CC(C)c1nnc2n1CCN(C(=O)c1cc(Cl)c[nH]1)C2` yielded a cytotoxicity at 70.5 h of 0.408%. With `CNc1snc(C)c1C(=O)N1CCC(Nc2ccc(C)nn2)CC1` the cytotoxicity at 70.5 h was -3.58%. `Cn1nccc1C(=O)Nc1cc(C(F)(F)F)c[nH]c1=O` showed a cytotoxicity at 70.5 h of -6.13%. `O=C(COc1ccc2c(c1)CCC2)NS(=O)(=O)c1cccnc1` gave a cytotoxicity at 70.5 h of -10.3%. For `COc1cccc(OCC(=O)NS(=O)(=O)c2cccnc2)c1`, the cytotoxicity at 70.5 h was -3.41%. Compound `Cc1nc(C)n(CC2CCCCN2CC(=O)Nc2c(C)n[nH]c2C)n1` (stereo not drawn) has a cytotoxicity at 70.5 h of -1.79%. `CCCc1noc(CN2CCN(CCO)CC2)n1` gave a cytotoxicity at 70.5 h of -1.1%.
